What was measured:
Test in all cases: relative viability (nuclei count vs DMSO), 5 days (fraction); higher = more cells survive
Ruboxistaurin + AZD7762 = compound: CN(C)C[C@@H]1CCn2cc(c3ccccc32)C2=C(C(=O)NC2=O)c2cn(c3ccccc23)CCO1 [Ruboxistaurin] + NC(=O)Nc1cc(-c2cccc(F)c2)sc1C(=O)N[C@H]1CCCNC1 [AZD7762] (partner 0.2 µM)
How it was run: (§1)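 Relative viability is defined as nuclei in treated wells over nuclei in vehicle wells. Duplicate plates were run and medians reported. Lung cancer cell lines in 1536-well plates were dosed by pin tool one day after seeding, with one drug or with a fixed anchor-drug dose plus five library-drug doses (not always all listed) in √10 steps, and nuclei were counted after 5 days.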

[1] = compound: CN(C)C[C@@H]1CCn2cc(c3ccccc32)C2=C(C(=O)NC2=O)c2cn(c3ccccc23)CCO1 [Ruboxistaurin] + N=C(N)NC(=N)NCCc1ccccc1 [Phenformin] (partner 250 µM)
How it was run: as §1

[2] = compound: CN(C)C[C@@H]1CCn2cc(c3ccccc32)C2=C(C(=O)NC2=O)c2cn(c3ccccc23)CCO1 [Ruboxistaurin] + Cc1nc(NC(=O)N2CCC[C@H]2C(N)=O)sc1-c1ccnc(C(C)(C)C(F)(F)F)c1 [Alpelisib] (partner 2 µM)
How it was run: as §1

[3] = compound: CN(C)C[C@@H]1CCn2cc(c3ccccc32)C2=C(C(=O)NC2=O)c2cn(c3ccccc23)CCO1 [Ruboxistaurin] + Cc1nc(Nc2ncc(C(=O)Nc3c(C)cccc3Cl)s2)cc(N2CCN(CCO)CC2)n1 [Dasatinib] (partner 0.075 µM)
How it was run: as §1

[4] = compound: CN(C)C[C@@H]1CCn2cc(c3ccccc32)C2=C(C(=O)NC2=O)c2cn(c3ccccc23)CCO1 [Ruboxistaurin] + CS(=O)(=O)CCNCc1ccc(-c2ccc3ncnc(Nc4ccc(OCc5cccc(F)c5)c(Cl)c4)c3c2)o1 [Lapatinib] (partner 2 µM)
How it was run: as §1

NCI-H1915 gave a relative viability (Ruboxistaurin + AZD7762; first compound 0.08 µM) of 0.705, a relative viability (Ruboxistaurin + AZD7762; first compound 0.8 µM) of 0.62 and a relative viability (Ruboxistaurin + AZD7762; first compound 2.53 µM) of 0.716. It also gave a relative viability (Ruboxistaurin + AZD7762; first compound 8 µM) of 0.689, a relative viability ([1]; first compound 0.08 µM) of 0.35 and a relative viability ([1]; first compound 0.8 µM) of 0.349. It also gave a relative viability ([1]; first compound 2.53 µM) of 0.363, a relative viability ([1]; first compound 8 µM) of 0.376 and a relative viability ([2]; first compound 0.08 µM) of 1.07. For the same cell line, the relative viability ([2]; first compound 0.8 µM) was 1.02, the relative viability ([2]; first compound 2.53 µM) was 1.03 and the relative viability ([2]; first compound 8 µM) was 1.09. For the same cell line, the relative viability ([3]; first compound 0.08 µM) was 0.308, the relative viability ([3]; first compound 0.8 µM) was 0.286 and the relative viability ([3]; first compound 2.53 µM) was 0.267. It also gave a relative viability ([3]; first compound 8 µM) of 0.224, a relative viability ([4]; first compound 0.08 µM) of 1.02 and a relative viability ([4]; first compound 0.8 µM) of 0.918. The relative viability ([4]; first compound 2.53 µM) was 0.891 and the relative viability ([4]; first compound 8 µM) was 0.967.
For NCI-H1944, the relative viability (Ruboxistaurin + AZD7762; first compound 0.08 µM) was 0.477, the relative viability (Ruboxistaurin + AZD7762; first compound 0.8 µM) was 0.544 and the relative viability (Ruboxistaurin + AZD7762; first compound 2.53 µM) was 0.524. The relative viability (Ruboxistaurin + AZD7762; first compound 8 µM) was 0.492, the relative viability ([1]; first compound 0.08 µM) was 0.213 and the relative viability ([1]; first compound 0.8 µM) was 0.183. It also gave a relative viability ([1]; first compound 2.53 µM) of 0.179, a relative viability ([1]; first compound 8 µM) of 0.186 and a relative viability ([2]; first compound 0.08 µM) of 0.866. The relative viability ([2]; first compound 0.8 µM) was 0.722, the relative viability ([2]; first compound 2.53 µM) was 0.716 and the relative viability ([2]; first compound 8 µM) was 0.738. For the same cell line, the relative viability ([3]; first compound 0.08 µM) was 0.209, the relative viability ([3]; first compound 0.8 µM) was 0.204 and the relative viability ([3]; first compound 2.53 µM) was 0.205. The relative viability ([3]; first compound 8 µM) was 0.189, the relative viability ([4]; first compound 0.08 µM) was 0.874 and the relative viability ([4]; first compound 0.8 µM) was 0.71. The relative viability ([4]; first compound 2.53 µM) was 0.731 and the relative viability ([4]; first compound 8 µM) was 0.819.
Work on NCI-H1975 yielded a relative viability (Ruboxistaurin + AZD7762; first compound 0.08 µM) of 0.784, a relative viability (Ruboxistaurin + AZD7762; first compound 0.8 µM) of 0.639 and a relative viability (Ruboxistaurin + AZD7762; first compound 2.53 µM) of 0.686. For the same cell line, the relative viability (Ruboxistaurin + AZD7762; first compound 8 µM) was 0.601, the relative viability ([1]; first compound 0.08 µM) was 0.431 and the relative viability ([1]; first compound 0.8 µM) was 0.392. For the same cell line, the relative viability ([1]; first compound 2.53 µM) was 0.414, the relative viability ([1]; first compound 8 µM) was 0.418 and the relative viability ([2]; first compound 0.08 µM) was 0.678. The relative viability ([2]; first compound 0.8 µM) was 0.565, the relative viability ([2]; first compound 2.53 µM) was 0.561 and the relative viability ([2]; first compound 8 µM) was 0.447. For the same cell line, the relative viability ([3]; first compound 0.08 µM) was 0.381, the relative viability ([3]; first compound 0.8 µM) was 0.278 and the relative viability ([3]; first compound 2.53 µM) was 0.291. It also gave a relative viability ([3]; first compound 8 µM) of 0.257, a relative viability ([4]; first compound 0.08 µM) of 0.93 and a relative viability ([4]; first compound 0.8 µM) of 0.821. It also gave a relative viability ([4]; first compound 2.53 µM) of 0.906 and a relative viability ([4]; first compound 8 µM) of 0.826.
NCI-H1993 gave a relative viability (Ruboxistaurin + AZD7762; first compound 0.08 µM) of 0.958, a relative viability (Ruboxistaurin + AZD7762; first compound 0.8 µM) of 0.57 and a relative viability (Ruboxistaurin + AZD7762; first compound 2.53 µM) of 0.93. It also gave a relative viability (Ruboxistaurin + AZD7762; first compound 8 µM) of 0.296, a relative viability ([1]; first compound 0.08 µM) of 0.529 and a relative viability ([1]; first compound 0.8 µM) of 0.518. The relative viability ([1]; first compound 2.53 µM) was 0.525, the relative viability ([1]; first compound 8 µM) was 0.568 and the relative viability ([2]; first compound 0.08 µM) was 0.615. For the same cell line, the relative viability ([2]; first compound 0.8 µM) was 0.664, the relative viability ([2]; first compound 2.53 µM) was 0.664 and the relative viability ([2]; first compound 8 µM) was 0.628. The relative viability ([3]; first compound 0.08 µM) was 0.78, the relative viability ([3]; first compound 0.8 µM) was 0.422 and the relative viability ([3]; first compound 2.53 µM) was 0.561. It also gave a relative viability ([3]; first compound 8 µM) of 0.555, a relative viability ([4]; first compound 0.08 µM) of 0.837 and a relative viability ([4]; first compound 0.8 µM) of 0.789. For the same cell line, the relative viability ([4]; first compound 2.53 µM) was 0.848 and the relative viability ([4]; first compound 8 µM) was 0.808.
Work on NCI-H2085 yielded a relative viability (Ruboxistaurin + AZD7762; first compound 0.08 µM) of 1.05, a relative viability (Ruboxistaurin + AZD7762; first compound 0.8 µM) of 0.957 and a relative viability (Ruboxistaurin + AZD7762; first compound 2.53 µM) of 1.14. It also gave a relative viability (Ruboxistaurin + AZD7762; first compound 8 µM) of 0.981, a relative viability ([1]; first compound 0.08 µM) of 0.789 and a relative viability ([1]; first compound 0.8 µM) of 0.655. The relative viability ([1]; first compound 2.53 µM) was 0.745, the relative viability ([1]; first compound 8 µM) was 0.674 and the relative viability ([2]; first compound 0.08 µM) was 0.996. For the same cell line, the relative viability ([2]; first compound 0.8 µM) was 0.899, the relative viability ([2]; first compound 2.53 µM) was 0.977 and the relative viability ([2]; first compound 8 µM) was 0.997. For the same cell line, the relative viability ([3]; first compound 0.08 µM) was 0.204, the relative viability ([3]; first compound 0.8 µM) was 0.254 and the relative viability ([3]; first compound 2.53 µM) was 0.294. For the same cell line, the relative viability ([3]; first compound 8 µM) was 0.219, the relative viability ([4]; first compound 0.08 µM) was 0.902 and the relative viability ([4]; first compound 0.8 µM) was 0.76. The relative viability ([4]; first compound 2.53 µM) was 0.754 and the relative viability ([4]; first compound 8 µM) was 0.721.
NCI-H2087 gave a relative viability (Ruboxistaurin + AZD7762; first compound 0.08 µM) of 1.46, a relative viability (Ruboxistaurin + AZD7762; first compound 0.8 µM) of 1.17 and a relative viability (Ruboxistaurin + AZD7762; first compound 2.53 µM) of 1.38. For the same cell line, the relative viability (Ruboxistaurin + AZD7762; first compound 8 µM) was 1.44, the relative viability ([1]; first compound 0.08 µM) was 0.494 and the relative viability ([1]; first compound 0.8 µM) was 0.409. The relative viability ([1]; first compound 2.53 µM) was 0.481, the relative viability ([1]; first compound 8 µM) was 0.472 and the relative viability ([2]; first compound 0.08 µM) was 1.07. For the same cell line, the relative viability ([2]; first compound 0.8 µM) was 0.971, the relative viability ([2]; first compound 2.53 µM) was 1.24 and the relative viability ([2]; first compound 8 µM) was 0.952. The relative viability ([3]; first compound 0.08 µM) was 0.889, the relative viability ([3]; first compound 0.8 µM) was 0.783 and the relative viability ([3]; first compound 2.53 µM) was 0.835. The relative viability ([3]; first compound 8 µM) was 0.701, the relative viability ([4]; first compound 0.08 µM) was 0.952 and the relative viability ([4]; first compound 0.8 µM) was 1.02. For the same cell line, the relative viability ([4]; first compound 2.53 µM) was 1.25 and the relative viability ([4]; first compound 8 µM) was 1.1.
For NCI-H2126, the relative viability (Ruboxistaurin + AZD7762; first compound 0.08 µM) was 1.03, the relative viability (Ruboxistaurin + AZD7762; first compound 0.8 µM) was 0.91 and the relative viability (Ruboxistaurin + AZD7762; first compound 2.53 µM) was 0.981. It also gave a relative viability (Ruboxistaurin + AZD7762; first compound 8 µM) of 0.962, a relative viability ([1]; first compound 0.08 µM) of 0.573 and a relative viability ([1]; first compound 0.8 µM) of 0.52. It also gave a relative viability ([1]; first compound 2.53 µM) of 0.541, a relative viability ([1]; first compound 8 µM) of 0.52 and a relative viability ([2]; first compound 0.08 µM) of 0.729. For the same cell line, the relative viability ([2]; first compound 0.8 µM) was 0.713, the relative viability ([2]; first compound 2.53 µM) was 0.76 and the relative viability ([2]; first compound 8 µM) was 0.697. It also gave a relative viability ([3]; first compound 0.08 µM) of 0.697, a relative viability ([3]; first compound 0.8 µM) of 0.557 and a relative viability ([3]; first compound 2.53 µM) of 0.611. For the same cell line, the relative viability ([3]; first compound 8 µM) was 0.539, the relative viability ([4]; first compound 0.08 µM) was 0.751 and the relative viability ([4]; first compound 0.8 µM) was 0.703. It also gave a relative viability ([4]; first compound 2.53 µM) of 0.774 and a relative viability ([4]; first compound 8 µM) of 0.73.

— the supplement of paper PMC10307832
